*1 amine or outer side, *2 acyl side, *3 side chain or, on linkers, in order; H or OH if unused. Where a SMILES comes first, the peptide text is derived from it. Bridges are numbered along the chain shown (N, C = ends). Roman numbers before positions name the chains, in order. [ ]: non-standard residue; d: D form. X3 = CNCC[C@H](N[*:1])C(=O)[*:2]; Tle = CC(C)(C)[C@H](N)C(=O)O; dDab = NCC[C@@H](N)C(=O)O; Nle = CCCC[C@H](N)C(=O)O; Orn = NCCC[C@H](N)C(=O)O; Dab = NCC[C@H](N)C(=O)O; dAze = O=C(O)[C@H]1CCN1; Dap = NC[C@H](N)C(=O)O
Columns and labels:
Type in all cases: cell-based
[1] = tested on: human red blood cells (hRBC); assay: Hemolysis of human red blood cells; conditions: red cells of human, 1 h
Protocol: (§1) Lyophilized peptides were weighed on a Microbalance (Mettler MT5) and dissolved in sterile water to a final concentration of 1 mg/mL. Stock solutions were kept at +4° C., light protected.
The peptides were tested for their hemolytic activity against human red blood cells (hRBC). Fresh hRBC were washed three times with phosphate buffered saline (PBS) and centrifuged for 10 min at 2000×g. Compounds (100 μg/mL) were incubated with 20% hRBC (v/v) for 1 h at 37° C. and shaking at 300 rpm. The final erythrocyte concentration was approximately 0.9×10^9 cells/mL. A value of 0% and 100% cell lyses, respectively, was determined by incubation of hRBC in the presence of PBS containing 0.001% acetic acid and 2.5% Triton X-100 in H2O, respectively. The samples were centrifuged, the supernatants were 8-fold diluted in PBS buffer and the optical densities (OD) were measured at 540 nm. The 100% lyses value (OD540H2O) gave an OD540 of approximately 0.5-1.0.
Percent hemolysis was calculated as follows: (OD540peptide/OD540H2O)×100%.

[2] = tested on: Acinetobacter baumannii DSM 30008; conditions: DSM 30008
Protocol: as §1
(§2) The in vitro antimicrobial activities of the peptides were determined in 96-well plates (Greiner, polystyrene) by the standard CLSI broth microdilution method (Clinical and Laboratory Standards Institute 2014. Performance standards for antimicrobial susceptibility testing, 24th informational supplement. Approved standard CLSI M100-S24; Clinical and Laboratory Standards Institute, Wayne, Pa.). Inocula of the microorganisms were diluted into Mueller-Hinton II (MH-cation adjusted) broth and compared with a 0.5 McFarland standard to give appr. 10^6 colony forming units (CFU)/mL. Aliquots (90 μL) of inoculate were added to 10 μL of MH-II broth+P-80 (Polysorbate 80, 0.002% final concentration, v/v) containing the peptide in serial two-fold dilutions. The following microorganisms were used to determine antibiotic activity of the peptides: Escherichia coli ATCC 25922, Klebsiella pneumoniae SSI #3010^a), Acinetobacter baumannii DSM 30008, Pseudomonas aeruginosa ATCC 27853 and the clinical isolates Escherichia coli 926415^b), Klebsiella pneumoniae 968733^b) and Acinetobacter baumannii 872842^b). Antimicrobial activities of the peptides were expressed as the minimal inhibitory concentration (MIC) in μg/mL at which no visible growth was observed after 18-20 hours of incubation at 35° C. ^a) Obtained from Statens Serum Institut (SSI), Copenhagen, Denmark^b) Obtained from International Health Management Associates, Inc. (IHMA Europe Sàrl), Epalinges, Switzerland

[3] = tested on: Pseudomonas aeruginosa ATCC 27853; conditions: ATCC 27853
Protocol: as §1, §2

[4] = tested on: Escherichia coli ATCC 25922; conditions: ATCC 25922
Protocol: as §1, §2

[5] = tested on: Klebsiella pneumoniae SSI #3010; conditions: SSI #3010
Protocol: as §1, §2

Row | Acinetobacter baumannii DSM 30008 MIC [2] | Pseudomonas aeruginosa ATCC 27853 MIC [3] | Escherichia coli ATCC 25922 MIC [4] | Klebsiella pneumoniae SSI #3010 MIC [5] | Structure (SMILES) | Hemolysis at 100 μg/mL [1]; 100 | Hemolysis at 100 μg/mL ([1]; 100 μg/mL)
1 | 1 µg/mL | 4 µg/mL | 2 µg/mL | 2 µg/mL | CCCC[C@@H]1NC(=O)[C@@H]2CCCN2C(=O)[C@H]2CCCN2C(=O)[C@H](CO)NC(=O)[C@H](C)NC(=O)[C@H](C(C)(C)C)NC(=O)[C@H](CCN)NC(=O)[C@H](Cc2c[nH]c3ccccc23)NC(=O)[C@H](CCN)NC(=O)[C@@H](CCN)NC(=O)[C@H](CC(=O)N[C@H]2CCNC(=O)[C@H]([C@@H](C)O)NC(=O)[C@H](CCN)NC(=O)[C@H](CCN)NC(=O)[C@H](CC(C)C)NC(=O)[C@@H](Cc3ccccc3)NC(=O)[C@H](CCN)NC2=O)NC(=O)[C@H](CCN)NC(=O)[C@H](Cc2ccc(O)cc2)NC(=O)[C@H](CO)NC1=O [Ex. 64] (I: cyclo([Nle]SY[Dab]D[dDab][Dab]W[Dab][Tle]AS[dP]P) / II: [Dab][Dab][dF]L[Dab][Dab]T; amide I:5-II:N; lactam II:1-II:C) | <1% | –
2 | 2 µg/mL | 0.5 µg/mL | 2 µg/mL | 2 µg/mL | CCCC[C@@H]1NC(=O)[C@@H]2CCCN2C(=O)[C@H]2CCCN2C(=O)[C@H](CO)NC(=O)[C@H](C)NC(=O)[C@H](C(C)(C)C)NC(=O)[C@H](CCN)NC(=O)[C@H](Cc2c[nH]c3ccccc23)NC(=O)[C@H](CCN)NC(=O)[C@@H](CCN)NC(=O)[C@H](CCC(=O)N[C@@H](CCNC)C(=O)N[C@H]2CCNC(=O)[C@H]([C@@H](C)O)NC(=O)[C@H](CCN)NC(=O)[C@H](CCN)NC(=O)[C@H](CC(C)C)NC(=O)[C@@H](Cc3ccccc3)NC(=O)[C@H](CCN)NC2=O)NC(=O)[C@H](CCN)NC(=O)[C@H](Cc2ccc(O)cc2)NC(=O)[C@H](CO)NC1=O [Ex. 68] (I: cyclo(W[Dab][Tle]AS[dP]P[Nle]SY[Dab]E[dDab][Dab]) / II: [X3][Dab][Dab][dF]L[Dab][Dab]T; amide I:12-II:N; lactam II:2-II:C) | <1% | –
3 | 2 µg/mL | 0.25 µg/mL | 1 µg/mL | 1 µg/mL | CC(C)C[C@@H]1NC(=O)[C@@H](CC(C)C)NC(=O)[C@H](CCN)NC(=O)[C@@H](NC(=O)[C@H](CCN)NC(=O)[C@@H](NC(=O)[C@H](CCN)NC(=O)CC[C@@H]2NC(=O)[C@H](CCN)NC(=O)[C@H](Cc3ccc(O)cc3)NC(=O)[C@H]([C@@H](C)O)NC(=O)[C@H](C(C)C)NC(=O)[C@@H]3CCCN3C(=O)[C@H]3CCN3C(=O)[C@H](CO)NC(=O)[C@H](C)NC(=O)[C@H](C(C)(C)C)NC(=O)[C@H](CCN)NC(=O)[C@H](Cc3c[nH]c4ccccc34)NC(=O)[C@H](CCN)NC(=O)[C@@H](CCN)NC2=O)[C@@H](C)O)CCNC(=O)[C@H]([C@@H](C)O)NC(=O)[C@H](CCN)NC(=O)[C@H](CCN)NC1=O [Ex. 101] (I: cyclo(AS[dAze]PVTY[Dab]E[dDab][Dab]W[Dab][Tle]) / II: [Dab]T[Dab][Dab][Dab][dL]L[Dab][Dab]T; amide I:9-II:N; lactam II:4-II:C) | 4% | –

Second part, the compound before the results:

Row | Structure (SMILES) | Acinetobacter baumannii DSM 30008 MIC [2] | Pseudomonas aeruginosa ATCC 27853 MIC [3] | Escherichia coli ATCC 25922 MIC [4] | Klebsiella pneumoniae SSI #3010 MIC [5] | Hemolysis at 100 μg/mL [1]; 100 | Hemolysis at 100 μg/mL ([1]; 100 μg/mL)
4 | CCCC[C@@H]1NC(=O)[C@@H]2CCCN2C(=O)[C@H]2CCCN2C(=O)[C@H](CO)NC(=O)[C@H](C)NC(=O)[C@H](C(C)(C)C)NC(=O)[C@H](CCC(=O)N[C@@H](CCN)C(=O)N[C@H](C(=O)N[C@@H](CCN)C(=O)N[C@H]2CCNC(=O)[C@H]([C@@H](C)O)NC(=O)[C@H](CCN)NC(=O)[C@H](CCN)NC(=O)[C@H](CC(C)C)NC(=O)[C@@H](Cc3ccccc3)NC(=O)[C@H](CCN)NC2=O)[C@@H](C)O)NC(=O)[C@H](Cc2c[nH]c3ccccc23)NC(=O)[C@H](CCN)NC(=O)[C@@H](CCN)NC(=O)[C@H](CCCN)NC(=O)[C@H](CCN)NC(=O)[C@H](Cc2ccc(O)cc2)NC(=O)[C@H](CO)NC1=O [Ex. 11] (I: cyclo(WE[Tle]AS[dP]P[Nle]SY[Dab][Orn][dDab][Dab]) / II: [Dab]T[Dab][Dab][Dab][dF]L[Dab][Dab]T; amide I:2-II:N; lactam II:4-II:C) | 1 µg/mL | 0.5 µg/mL | 2 µg/mL | 1 µg/mL | 1% | –
5 | CCCC[C@@H]1NC(=O)[C@@H]2CCCN2C(=O)[C@H]2CCCN2C(=O)[C@H](CO)NC(=O)[C@H](C)NC(=O)[C@H](C(C)(C)C)NC(=O)[C@@H](NC(=O)[C@H](Cc2c[nH]c3ccccc23)NC(C)=O)CSSC[C@@H](C(=O)N[C@@H](CNC(=O)[C@@H](N)CCC(=O)O)C(=O)N[C@H](C(=O)N[C@@H](CCN)C(=O)N[C@H]2CCNC(=O)[C@H]([C@@H](C)O)NC(=O)[C@H](CCN)NC(=O)[C@H](CCN)NC(=O)[C@H](CC(C)C)NC(=O)[C@@H](Cc3ccccc3)NC(=O)[C@H](CCN)NC2=O)[C@@H](C)O)NC(=O)[C@H](Cc2ccc(O)cc2)NC(=O)[C@H](CO)NC1=O [Ex. 24] (Ac-WC[Tle]AS[dP]P[Nle]SYC[Dap](Glu)T[Dab][Dab][Dab][dF]L[Dab][Dab]T; disulfide 2-11; lactam 15-C) | 2 µg/mL | 4 µg/mL | 2 µg/mL | 4 µg/mL | – | 1%
6 | CCCC[C@@H]1NC(=O)[C@@H]2CCCN2C(=O)[C@H]2CCCN2C(=O)[C@H](CO)NC(=O)[C@H](C)NC(=O)[C@H](C(C)C)NC(=O)[C@@H](NC(=O)[C@H](Cc2c[nH]c3ccccc23)NC(C)=O)CSSC[C@@H](C(=O)N[C@@H](CCCN)C(=O)N[C@@H](CCN)C(=O)N[C@H]2CCNC(=O)[C@H]([C@@H](C)O)NC(=O)[C@H](CCN)NC(=O)[C@H](CCN)NC(=O)[C@H](CC(C)C)NC(=O)[C@@H](Cc3ccccc3)NC(=O)[C@H](CCN)NC2=O)NC(=O)[C@H](Cc2ccc(O)cc2)NC(=O)[C@H](CO)NC1=O [Ex. 55] (Ac-WCVAS[dP]P[Nle]SYC[Orn][Dab][Dab][Dab][dF]L[Dab][Dab]T; disulfide 2-11; lactam 14-C) | 1 µg/mL | 2 µg/mL | 0.5 µg/mL | 1 µg/mL | – | 1%
7 | CCCC[C@@H]1NC(=O)[C@@H]2CCCN2C(=O)[C@H]2CCCN2C(=O)[C@H](CO)NC(=O)[C@H](C)NC(=O)[C@H](C(C)(C)C)NC(=O)[C@@H](NC(=O)[C@H](Cc2c[nH]c3ccccc23)NC(C)=O)CC(=O)NCC[C@@H](C(=O)N[C@@H](CCCN)C(=O)N[C@@H](CCN)C(=O)N[C@H]2CCNC(=O)[C@H]([C@@H](C)O)NC(=O)[C@H](CCN)NC(=O)[C@H](CCN)NC(=O)[C@H](CC(C)C)NC(=O)[C@@H](Cc3ccccc3)NC(=O)[C@H](CCN)NC2=O)NC(=O)[C@H](Cc2ccc(O)cc2)NC(=O)[C@H](CO)NC1=O [Ex. 56] (Ac-WD[Tle]AS[dP]P[Nle]SY[Dab][Orn][Dab][Dab][Dab][dF]L[Dab][Dab]T; lactam 2-11, 14-C) | 2 µg/mL | 4 µg/mL | 0.5 µg/mL | 4 µg/mL | <1% | –
8 | CC(C)C[C@@H]1NC(=O)[C@H](CCCNC(=N)N)NC(=O)[C@@H](CCN)NC(=O)[C@H](C(C)C)NC(=O)[C@H](C)NC(=O)[C@H](Cc2ccc(O)cc2)NC(=O)[C@H](CCN)NC(=O)[C@H](Cc2c[nH]c3ccccc23)NC(=O)[C@H](CCN)NC(=O)[C@@H](CCN)NC(=O)[C@H](CCC(=O)N[C@@H](CCN)C(=O)N[C@H](C(=O)N[C@@H](CCN)C(=O)N[C@H]2CCNC(=O)[C@H]([C@@H](C)O)NC(=O)[C@H](CCN)NC(=O)[C@H](CCN)NC(=O)[C@H](CC(C)C)NC(=O)[C@@H](CC(C)C)NC(=O)[C@H](CCN)NC2=O)[C@@H](C)O)NC(=O)[C@H](CCN)NC(=O)[C@H](Cc2ccc(O)cc2)NC(=O)[C@H](CO)NC1=O [Ex. 97] (I: cyclo(AV[dDab]RLSY[Dab]E[dDab][Dab]W[Dab]Y) / II: [Dab]T[Dab][Dab][Dab][dL]L[Dab][Dab]T; amide I:9-II:N; lactam II:4-II:C) | 2 µg/mL | 0.5 µg/mL | 0.5 µg/mL | 0.5 µg/mL | 1% | –

Reference: patent publication US10829520B2, “Beta-hairpin peptidomimetics” (POLYPHOR AG, priority 2015, dated 2020)
